Experimental data taken from patent US10562902B2, “IRAK4 inhibitor and use thereof” (BEIJING HANMI PHARMACEUTICAL CO., LTD., priority 2015, dated 2020).

Each compound was assayed against IRAK4 kinase (Homo sapiens (Human), UniProt Q9NWZ3) (assay: IRAK4 kinase activity inhibition assay). Details: ADP-Glo kinase assay, 10 μM ATP, MBP substrate.
IRAK4 kinase, sequence (Q9NWZ3 whole entry): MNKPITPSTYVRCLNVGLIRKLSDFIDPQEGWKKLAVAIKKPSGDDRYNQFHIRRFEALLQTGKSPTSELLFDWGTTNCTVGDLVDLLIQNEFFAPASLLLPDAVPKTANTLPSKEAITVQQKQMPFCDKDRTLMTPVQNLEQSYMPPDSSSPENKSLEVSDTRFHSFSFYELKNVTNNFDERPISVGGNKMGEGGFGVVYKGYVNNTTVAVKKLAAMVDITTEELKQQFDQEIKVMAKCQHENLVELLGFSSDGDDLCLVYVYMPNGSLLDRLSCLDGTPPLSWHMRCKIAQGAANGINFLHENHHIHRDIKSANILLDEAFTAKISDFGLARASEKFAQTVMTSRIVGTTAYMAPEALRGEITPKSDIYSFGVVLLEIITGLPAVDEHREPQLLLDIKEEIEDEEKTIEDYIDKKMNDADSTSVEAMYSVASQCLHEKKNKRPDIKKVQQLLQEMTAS
Type: biochemical
Procedure: IRAK4 kinase (purchased from Life Technologies, Cat. No.: PR5612U) was diluted to 2 folds of the final concentration (the final concentration is […]) with reaction buffer (40 mM Tris-HC1, pH 7.5; 20 mM MgCl2; 0.1 mg/mL BSA; 1 mM DTT), and added to a 384-well plate at 5 μL/well. The test drugs were 10-fold serial diluted from 10 μM to set six concentration points and added to the test wells of the 384-well plate at 2.5 μL/well. After incubation for 10 min at 25° C., 10 μM of ATP and 0.1 μg/μL of an enzyme reaction substrate, myelin basic protein MBP (purchased from Signal Chem, Cat. No.: M42-51N) were added at 2.5 μL/well, and reacted at 25° C. for 60 minutes. After the reaction was completed, the kinase activity assay was performed using the ADP-Glo™ kinase assay kit (purchased from Promega, Cat. No.: V9102) according to the manufacture's instruction, i.e., 10 μL of ADP-Glo reaction reagent was first added and reacted at 25° C. for 40 minutes, 10 μL of the reaction mixture was taken and mixed with 10 μL of ADP-Glo detection reagent, and reacted at 25° C. for 30 minutes. The kinase activity was then detected, and the IC50 values of the test drugs were calculated.
Cn1cc(-n2ccc3nc(Nc4cc(C(N)=O)cs4)nc(O[C@H]4CCOC4)c32)cn1 [Example 132] showed an IC50 of at most 100 nM.
With CCCNC(=O)c1csc(Nc2nc(O[C@H]3CCOC3)c3c(ccn3-c3cnn(C)c3)n2)c1 [Example 135] the IC50 was 100 to 1000 nM.
CC(C)NC(=O)c1csc(Nc2nc(O[C@H]3CCOC3)c3c(ccn3-c3cnn(C)c3)n2)c1 [Example 136] gave an IC50 of at most 100 nM.
Cn1cc(-n2ccc3nc(Nc4cc(C(=O)NCCF)cs4)nc(O[C@H]4CCOC4)c32)cn1 [Example 137] gave an IC50 of at most 100 nM.
Compound Cn1cc(-n2ccc3nc(Nc4cc(C(=O)NCC(F)(F)F)cs4)nc(O[C@H]4CCOC4)c32)cn1 [Example 138] has an IC50 of at most 100 nM.
Compound COCCNC(=O)c1csc(Nc2nc(O[C@H]3CCOC3)c3c(ccn3-c3cnn(C)c3)n2)c1 [Example 139] has an IC50 of at most 100 nM.
For Cn1cc(-n2ccc3nc(Nc4cc(C(=O)NCC5CCOCC5)cs4)nc(O[C@H]4CCOC4)c32)cn1 [Example 140], the IC50 was at most 100 nM.
With CN1CCC(CNC(=O)c2csc(Nc3nc(O[C@H]4CCOC4)c4c(ccn4-c4cnn(C)c4)n3)c2)CC1 [Example 141] the IC50 was at most 100 nM.
Cn1cc(-n2ccc3nc(Nc4cc(C(=O)NCc5cccs5)cs4)nc(O[C@H]4CCOC4)c32)cn1 [Example 142] gave an IC50 of 100 to 1000 nM.
Cn1cc(-n2ccc3nc(Nc4cc(C(=O)NC5CC5)cs4)nc(O[C@H]4CCOC4)c32)cn1 [Example 143] was tested, and the IC50 was at most 100 nM.
In the case of Cn1cc(-n2ccc3nc(Nc4cc(C(=O)NC5CCCCC5)cs4)nc(O[C@H]4CCOC4)c32)cn1 [Example 144], the IC50 is reported as 100 to 1000 nM.
Work on CN1CCC(NC(=O)c2csc(Nc3nc(O[C@H]4CCOC4)c4c(ccn4-c4cnn(C)c4)n3)c2)CC1 [Example 145] yielded an IC50 of at most 100 nM.
Cn1cc(-n2ccc3nc(Nc4cc(C(=O)N[C@@H]5CCOC5)cs4)nc(O[C@H]4CCOC4)c32)cn1 [Example 146] showed an IC50 of at most 100 nM.
For Cn1cc(-n2ccc3nc(Nc4cc(C(=O)N[C@H]5CCOC5)cs4)nc(O[C@H]4CCOC4)c32)cn1 [Example 147], the IC50 was at most 100 nM.
Cn1cc(-n2ccc3nc(Nc4cc(C(=O)NC5CCOCC5)cs4)nc(O[C@H]4CCOC4)c32)cn1 [Example 148] showed an IC50 of at most 100 nM.
CN(C)C(=O)c1csc(Nc2nc(O[C@H]3CCOC3)c3c(ccn3-c3cnn(C)c3)n2)c1 [Example 149] gave an IC50 of at most 100 nM.
Work on Cn1cc(-n2ccc3nc(Nc4cc(C(=O)N5CCCCC5)cs4)nc(O[C@H]4CCOC4)c32)cn1 [Example 150] yielded an IC50 of at most 100 nM.
With CN1CCN(C(=O)c2csc(Nc3nc(O[C@H]4CCOC4)c4c(ccn4-c4cnn(C)c4)n3)c2)CC1 [Example 151] the IC50 was at most 100 nM.
For Cn1cc(-n2ccc3nc(Nc4cc(C(=O)N5CCOCC5)cs4)nc(O[C@H]4CCOC4)c32)cn1 [Example 152], the IC50 was at most 100 nM.
Cn1cc(-n2ccc3nc(Nc4cc(C(=O)N5CCSCC5)cs4)nc(O[C@H]4CCOC4)c32)cn1 [Example 153] gave an IC50 of 100 to 1000 nM.
For Cn1cc(-n2ccc3nc(Nc4cc(C(=O)N5CCS(=O)(=O)CC5)cs4)nc(O[C@H]4CCOC4)c32)cn1 [Example 154], the IC50 was at most 100 nM.
With CNC(=O)c1cc(Nc2nc(OCCOC)c3c(ccn3-c3cnn(C)c3)n2)cs1 [Example 155] the IC50 was at most 100 nM.
Work on CCNC(=O)c1cc(Nc2nc(OCCOC)c3c(ccn3-c3cnn(C)c3)n2)cs1 [Example 156] yielded an IC50 of at most 100 nM.
Work on CNC(=O)c1cc(Nc2nc(O[C@@H]3CCOC3)c3c(ccn3-c3cnn(C)c3)n2)cs1 [Example 157] yielded an IC50 of at most 100 nM.
In the case of CCNC(=O)c1cc(Nc2nc(O[C@@H]3CCOC3)c3c(ccn3-c3cnn(C)c3)n2)cs1 [Example 158], the IC50 is reported as at most 100 nM.
In the case of CNC(=O)c1cc(Nc2nc(O[C@H]3CCOC3)c3c(ccn3-c3cnn(C)c3)n2)cs1 [Example 159], the IC50 is reported as at most 100 nM.
CCNC(=O)c1cc(Nc2nc(O[C@H]3CCOC3)c3c(ccn3-c3cnn(C)c3)n2)cs1 [Example 160] showed an IC50 of at most 100 nM.
Cn1cc(-n2ccc3nc(Nc4csc(C(=O)NCCF)c4)nc(O[C@H]4CCOC4)c32)cn1 [Example 161] gave an IC50 of at most 100 nM.
CN1CCC(NC(=O)c2cc(Nc3nc(O[C@H]4CCOC4)c4c(ccn4-c4cnn(C)c4)n3)cs2)CC1 [Example 162] showed an IC50 of at most 100 nM.
